Common to all, as to assay type: cell-based
One test addresses T1, KRAS G12D (Homo sapiens, UniProt P01116, G12D).
T1 construct: AsPc-1-KRAS (G12D)-HiBit-KI cell (Pharmaron); host or cells: AsPc-1-KRAS (G12D)-HiBit-KI cells (HiBiT knock-in at the endogenous KRAS locus)
Nature of the test: KRAS G12D HiBit assay. Particulars: AsPc-1-KRAS (G12D)-HiBit-KI cell, compound treatment for 24 hours, absolute DC50; class symbols. Put shortly: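 Cells were treated for 24 h with compounds in a 3-fold, 10-point dilution series from a 0.3 mM DMSO stock, then equilibrated 15 min at room temperature. KRAS G12D HiBiT levels were read by luminescence after lytic Nano-Glo HiBiT reagent with LgBiT; inhibition calculated relative to 0.1% DMSO high control.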
In general terms: The HiBiT peptide binds its large partner to form an active luciferase.

For another test, the target named is T2, KRAS G12V (Homo sapiens, UniProt P01116, G12V).
T2 construct: SW620-KRAS (G12V)-HiBit-KI cell (Pharmaron); host or cells: SW620-KRAS (G12V)-HiBit-KI cells (HiBiT knock-in at the endogenous KRAS locus)
T2 sequence (P01116 1-188 isoform P01116-2 G12V): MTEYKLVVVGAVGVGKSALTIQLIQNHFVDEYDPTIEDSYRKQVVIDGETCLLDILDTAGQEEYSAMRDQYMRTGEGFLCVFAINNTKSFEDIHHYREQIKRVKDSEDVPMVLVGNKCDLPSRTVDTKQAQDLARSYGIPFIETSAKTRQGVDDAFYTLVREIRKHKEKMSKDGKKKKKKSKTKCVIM
Nature of the test: KRAS G12V HiBit assay. Particulars: SW620-KRAS (G12V)-HiBit-KI cells, compound treatment for 24 hours, class symbols. Put shortly: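 HiBiT-tagged KRAS G12V cells treated 24 h with compound in a 3-fold, 10-point series (0.3 mM DMSO stock); lytic HiBiT reagent with LgBiT added after 15 min room-temperature equilibration. Degradation calculated against 0.1% DMSO high control.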

For another test, the target named is T3, KRAS (Homo sapiens, UniProt P01116).
T3 construct: endogenous in cells; host or cells: KE39 (KRAS amplified) cells
T3 sequence (P01116 1-188 isoform P01116-2): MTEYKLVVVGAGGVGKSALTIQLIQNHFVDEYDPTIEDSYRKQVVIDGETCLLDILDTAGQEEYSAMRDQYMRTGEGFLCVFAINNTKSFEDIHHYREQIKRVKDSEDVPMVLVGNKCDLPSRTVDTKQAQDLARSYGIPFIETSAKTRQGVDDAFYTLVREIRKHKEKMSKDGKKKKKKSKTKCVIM
In words: KRASamp MSD assay. The settings on record: KE39 (KRAS amplified) cells, treated with test compounds for 24 hr, MSD readout of KRAS degradation. The method in brief:
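KRAS-amplified KE39 cells treated with compound for 24 hr, then lysed in RIPA buffer with protease/phosphatase inhibitors. KRAS protein measured by MSD sandwich immunoassay against a recombinant WT KRAS standard curve; DC50 derived from curve fitting of degradation.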

The structures appear in SMILES notation.

T1 sequence (P01116 1-188 isoform P01116-2 G12D): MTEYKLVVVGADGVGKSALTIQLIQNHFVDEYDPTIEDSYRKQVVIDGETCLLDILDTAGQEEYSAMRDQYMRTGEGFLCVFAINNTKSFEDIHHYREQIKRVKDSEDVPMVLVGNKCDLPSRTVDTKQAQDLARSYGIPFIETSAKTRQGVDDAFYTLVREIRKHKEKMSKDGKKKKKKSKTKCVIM

Take `C#Cc1c(F)ccc2cc(O)cc(-c3ncc4c(N5CCC[C@@](C)(O)C5)nc(OC[C@@]56CCCN5[C@H](COC(=O)N5CCC7(CC5)CC(CN5CCC(c8ccc9c(c8)n(C)c(=O)n9C8CCC(=O)NC8=O)CC5)C7)CC6)nc4c3F)c12` (stereo partly drawn) [Compound 323, ((3S,7aS)-7a-(((7-(8-ethynyl-7-fluoro-3-hydroxynaphthalen-1-yl)-8-fluoro-4-((R)-3-hydroxy-3-methylpiperidin-1-yl)pyrido[4,3-d]pyrimidin-2-yl)oxy)methyl)hexahydro-1H-pyrrolizin-3-yl)methyl 2-((4-(1-(2,6-dioxopiperidin-3-yl)-3-methyl-2-oxo-2,3-dihydro-1H-benzo[d]imidazol-5-yl)piperidin-1-yl)methyl)-7-azaspiro[3.5]nonane-7-carboxylate]: the DC50 is below 100 nM on KRAS G12D, below 10 nM at KRAS G12V and 1 to 10 nM at KRAS.
Consider `CCc1c(F)ccc2cc(O)cc(-c3ncc4c(N5CCC[C@@](C)(O)C5)nc(OC[C@@]56CCCN5[C@H](CN5CCC7(CC5)CC(N5CCC(c8ccc9c(c8)n(C)c(=O)n9C8CCC(=O)NC8=O)CC5)C7)CC6)nc4c3F)c12` (stereo partly drawn) [Compound 471, 3-(5-(1-(7-(((3S,7aS)-7a-(((7-(8-Ethyl-7-fluoro-3-hydroxynaphthalen-1-yl)-8-fluoro-4-((R)-3-hydroxy-3-methylpiperidin-1-yl)pyrido[4,3-d]pyrimidin-2-yl)oxy)methyl)hexahydro-1H-pyrrolizin-3-yl)methyl)-7-azaspiro[3.5]nonan-2-yl)piperidin-4-yl)-3-methyl-2-oxo-2,3-dihydro-1H-benzo[d]imidazol-1-yl) piperidine-2,6-dione], for which the DC50 at KRAS G12D was below 100 nM; on KRAS G12V it was above 100 nM; on KRAS, 1 to 10 nM.
As to `C#Cc1c(F)ccc2cc(O)cc(-c3ncc4c(N5CCC[C@@](C)(O)C5)nc(OC[C@@]56CCCN5[C@H](COC(=O)N5CC7(CC(N8CCC(c9ccc%10c(c9)n(C)c(=O)n%10C9CCC(=O)NC9=O)CC8)C7)C5)CC6)nc4c3F)c12` (stereo partly drawn) [Compound 419, ((3S,7aS)-7a-(((7-(8-ethynyl-7-fluoro-3-hydroxynaphthalen-1-yl)-8-fluoro-4-((R)-3-hydroxy-3-methylpiperidin-1-yl)pyrido[4,3-d]pyrimidin-2-yl)oxy)methyl)hexahydro-1H-pyrrolizin-3-yl)methyl 6-(4-(1-(2,6-dioxopiperidin-3-yl)-3-methyl-2-oxo-2,3-dihydro-1H-benzo[d]imidazol-5-yl)piperidin-1-yl)-2-azaspiro[3.3]heptane-2-carboxylate], the DC50 at KRAS G12D is below 100 nM; on KRAS G12V it was below 10 nM; at KRAS it was below 1 nM.
Turning to `CCc1c(F)ccc2cc(O)cc(-c3ncc4c(N5CCC[C@@](C)(O)C5)nc(OC[C@@]56CCCN5[C@H](COC(=O)c5ccc(CN7CCC(c8ccc9c(c8)n(C)c(=O)n9C8CCC(=O)NC8=O)CC7)cc5)CC6)nc4c3F)c12` (stereo partly drawn) [Compound 154], the DC50 is below 100 nM at KRAS G12D, below 10 nM at KRAS G12V and below 1 nM on KRAS.

Source of the values: patent US12599672B2, “KRAS proteolysis targeting chimeras” (PAQ Therapeutics Inc., priority 2023, dated 2026).
